Columns and labels:
[1] = target: T1, SphK1 (Homo sapiens, UniProt Q9NYA1); assay: Isothermal titration calorimetry of harmaline with SphK1; format: binding
[2] = tested on: A549 cells; assay: MTT cell viability assay, A549; format: cell-based; conditions: Homo sapiens, A549, 48 h, read-out: IC50, cell viability (MTT)
[3] = tested on: H1299 cells; assay: MTT cell viability assay, H1299; format: cell-based; conditions: Homo sapiens, NCI-H1299, 48 h, read-out: IC50, cell viability (MTT)
[4] = tested on: caspase-3 activity in A549 cells; assay: Caspase-3 colorimetric assay, A549; format: cell-based, human; conditions: 50 and 100 μM, 24 h, compared to untreated cells
[5] = tested on: HEK293; conditions: read-out: IC50 against HEK293; after 72 h of treatment; ref Storch et al. 94; cited from earlier work
[6] = tested on: caspase-3 activity in H1299 cells; assay: Caspase-3 colorimetric assay, H1299; format: cell-based, human; conditions: 50 and 100 μM, 24 h, compared to untreated cells
[7] = target: T1, SphK1; assay: Malachite green-based ATPase enzyme inhibition assay; format: biochemical

T1 sequence (Q9NYA1 whole entry): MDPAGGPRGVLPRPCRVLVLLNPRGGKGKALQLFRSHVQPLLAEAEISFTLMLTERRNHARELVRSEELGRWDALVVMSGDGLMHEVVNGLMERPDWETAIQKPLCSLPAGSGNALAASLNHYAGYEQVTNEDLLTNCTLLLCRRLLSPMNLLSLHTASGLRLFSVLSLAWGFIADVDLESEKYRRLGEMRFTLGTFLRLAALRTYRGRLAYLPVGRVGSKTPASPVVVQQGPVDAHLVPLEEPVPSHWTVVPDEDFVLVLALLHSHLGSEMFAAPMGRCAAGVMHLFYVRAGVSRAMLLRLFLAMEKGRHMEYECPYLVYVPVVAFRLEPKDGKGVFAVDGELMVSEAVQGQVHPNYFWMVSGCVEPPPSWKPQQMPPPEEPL

For `COc1ccc2c3c([nH]c2c1)C(C)=NCC3` [harmaline], the “association constant Ka1” value ([1]; ITC, site 1) was “Ka1 = 1.89 × 10^4 ± 1.3 × 10^3 M^–1”, the “enthalpy change ΔH1” value ([1]; ITC, site 1) was “ΔH1 = −3205 ± 197 cal/mol” and the “ΔG1 (free energy change)” value ([1]; ITC, site 1) was “ΔG1 = −5.83 kcal/mol”. For the same compound, the ΔS1 ([1]; ITC, site 1) was “ΔS1 = 8.82 cal/mol/deg”, the “association constant Ka2” value ([1]; ITC, site 2) was “Ka2 = 1.49 × 10^5 ± 8.6 × 10^3 M^–1” and the “enthalpy change ΔH2” value ([1]; ITC, site 2) was “ΔH2 = 1895 ± 257 cal/mol”. For the same compound, the “ΔG2 (free energy change)” value ([1]; ITC, site 2) was “ΔG2 = −7.04 kcal/mol”, the ΔS2 ([1]; ITC, site 2) was “ΔS2 = 30.0 cal/mol/deg” and the “association constant Ka3” value ([1]; ITC, site 3) was “Ka3 = 3.50 × 10^4 ± 2.0 × 10^3 M^–1”. For the same compound, the “enthalpy change ΔH3” value ([1]; ITC, site 3) was “ΔH3 = 272.3 ± 190 cal/mol”, the “ΔG3 (free energy change)” value ([1]; ITC, site 3) was “ΔG3 = −5.99 kcal/mol” and the ΔS3 ([1]; ITC, site 3) was “ΔS3 = 21.7 cal/mol/deg”. The “association constant Ka4” value ([1]; ITC, site 4) was “Ka4 = 4.58 × 10^3 ± 2.9 × 10^2 M^–1”, the “enthalpy change ΔH4” value ([1]; ITC, site 4) was “ΔH4 = −9574 ± 467 cal/mol” and the “ΔG4 (free energy change)” value ([1]; ITC, site 4) was “ΔG4 = −4.98 kcal/mol”. For the same compound, the ΔS4 ([1]; ITC, site 4) was “ΔS4 = −15.4 cal/mol/deg”, the Kd ([1]; dissociation constant KD1, ITC, site 1) was 52.9 µM and the Kd ([1]; dissociation constant KD2, ITC, site 2) was 6.7 µM. For the same compound, the Kd ([1]; dissociation constant KD3, ITC, site 3) was 28.6 µM, the Kd ([1]; dissociation constant KD4, ITC, site 4) was 218 µM and the IC50 [2] was 67.9 ± 2.91 µM. For the same compound, the IC50 [3] was 48.2 ± 1.76 µM, the “caspase-3 activity (free pNA liberated per hour)” value [4] was “gradual increase in the caspase-3 activity” and the IC50 [5] was over 200 µM. For the same compound, the “caspase-3 activity (free pNA liberated per hour)” value [6] was “gradual increase in the caspase-3 activity”, the IC50 ([7]; IC50, SphK1 ATPase activity, harmaline 0 to 30 μM, three independent experiments) was 6.13 µM and the “hill slope of SphK1 inhibition curve” value ([7]; three-parameter Hill fit) was 0.57.
